Assay results published in patent US7781423B2, “Compounds to promote regeneration of bone marrow” (priority 2007, dated 2010).
Where two headings read alike, the source gives them in different places.

Legend:
healthy mice [1] = assay: Toxicity in healthy mice; format: in vivo; conditions: for well tolerated maximal dose: mice weighing about 25 g
Protocol: Accordingly, a well tolerated maximal dose for CCompound1 or CCompound3 in mice (weighing about 25 g) is […] which corresponds to a dose of 4.6 mg/kg. Therapeutically effective concentrations of CC compounds in humans will exert significant promoting effects on bone marrow regeneration without causing toxicity in other normal healthy tissues.

healthy mice [2] = assay: Toxicity in healthy mice; format: in vivo; conditions: 1,000-1,500 μmole doses
MXT mammary tumor = format: in vivo; conditions: for effect on body weight: MXT tumor-bearing, CP-treated mice, by day 22; for Total weight / Tumor weight / Body weight: CP 120-mg/kg i.p. x8 daily from day 6, CC compounds s.c. with each CP (1 and 3: 4.5-mg/kg, 26: 2.0-mg/kg); for Body weight: total minus tumor weight
Protocol: This experiment was designed to determine whether in a tumor model CC compounds could prevent cyclophosphamide-induced loss of body weight resulting from the depression of blood marrow function. Specified pathogen free (SPF) hygienic category colonies of first generation hybrid BDF1 (C57B1 female×DBA/2 male) adult female mice, weighing 23-24 g, were used. The animals were kept in macrolon cages at 22-24° C. (45-55% humidity), with a lighting regimen of 12/12 h light/dark. […] The animals used in these studies were cared for according to the “Guiding Principles for the Care and Use of Animals” based upon the Helsinki declaration.
MXT mammary tumor pieces (containing about 10^6 tumor cells) were implanted subcutaneously to develop the tumors. After six days when the tumor-bearing mice were first treated, the sizes of the tumors were in the 0.26-0.30 cm^3 range. All compounds used were dissolved in 0.9% sodium chloride and applied subcutaneously (CC compounds) or intraperitoneally (CP) in 50 μl volume. Tumor volume was determined by using calipers in three dimensions; this technique is well known to one having ordinary skill in the art. Tumor volume was calculated according to the generally accepted formula: V=a^2×b×π/6, where “a” and “b” mean the shortest and longest diameter, respectively, of the measured tumor.
In the first group, animals received no treatment. In the second group, mice were administered 120-mg/kg of CP on day 6 followed by seven consecutive daily treatments with the same dose. In the third group, each treatment with CP was associated with administration of 4.5-mg/kg of CCompound1. In the fourth group, each treatment with CP was associated with administration of 4.5-mg/kg of CCompound3. In the fifth group, each treatment with CP was associated with administration of 2.0-mg/kg of CCompound26. Each group included 7 mice. All data represent the average of 7 determinations (one determination with each mouse in the group).

[3] = tested on: cyclophosphamide-treated mice; assay: Blood profile in cyclophosphamide-treated mice; format: in vivo, C57B1 mice; conditions: for effect on blood profile (WBC, PTL): cyclophosphamide-treated mice, CCompound26 at a smaller dose than the two others
Protocol: Twelve week old female C57B1 mice were used for the experiments. Each drug was administered intraperitoneally once a day for 5 consecutive days. In the second, third, fourth and fifth groups, mice were administered 120 mg/kg of cyclophosphamide (CP). In a third group, mice were also administered 4.5 mg/kg of CCompound1. In a fourth group, mice were also administered 4.5 mg/kg of CCompound3. In a fifth group, mice were also administered 2.0 mg/kg of CCompound26. In the first group, mice received no treatment. Each group included 5 animals. After 3 hours of the last treatments (on day 5), blood samples were collected from the ocular venous plexus of ether-anesthetized mice by retro-orbital venipuncture in heparanized tubes. Complete cell counts (RBC, red blood cell; WBC, white blood cell; PTL, platelet) were determined with a Sysmex F-800 hematology analyzer (To a Medical Electronics Co. LTD, Kobe, Japan). All data shown in Table 2 are the average of 5 independent determinations.

human cancer patients = conditions: following stem cell transplantation; cited from earlier work
[4] = single 450 μmole (about 4.6 mg/kg) or daily 400 μmole for 5 consecutive days
[5] = i.p. once a day for 5 days, CP 120 mg/kg, CCompound1, 3: 4.5 mg/kg, CCompound26: 2.0 mg/kg, blood 3 hours after last treatment (day 5), 5 animals
[6] = day 6 after tumor transplantation (first treatment day)
[7] = day 8 after tumor transplantation
[8] = day 11 after tumor transplantation
[9] = day 15 after tumor transplantation
[10] = day 18 after tumor transplantation
[11] = day 22 after tumor transplantation

Molecule: CC[N+](C)(CC)CCOCc1ccc2sc3ccccc3c(=O)c2c1.[I-] [CCcompound3]
- well tolerated maximal dose (healthy mice [1]): 450 μmole/animal
- well tolerated maximal dose (healthy mice [1]; corresponds to 450 μmole/animal): 4.6 mg/kg
- change in the composition of various blood constituents (healthy mice [1]; [4]): did not cause any significant change
- pathological alterations in the liver, brain, kidney, heart, spleen, intestine, and lung (healthy mice [1]; [4]): did not induce significant pathological alterations
- solubility in water (Solubility in water): soluble in water
- tissue alterations at high doses (healthy mice [2]): mild parenchymal degeneration in the heart, focal hypostasis and chronic bronchopneumonia
- effect on body weight (MXT mammary tumor): body weight gain

Molecule: C=CC[N+](CC)(CC)CC/C=C1/c2ccccc2Sc2ccc(C)cc21.[Br-] [CCcompound26, N,N-Diethyl-N-allyl-3-(2-methyl-9H-thioxanthen-9-ylidene)-propane-1-aminium bromide]
- solubility in water (Solubility in water): water-soluble
- effect on cyclophosphamide-induced decrease in white blood cell and platelet counts ([3]; 2.0 mg/kg): partially reversed
- effect on blood profile (WBC, PTL) [3]: least effective
- toxic effects at the effective dose (MXT mammary tumor; 2.0 mg/kg, inferred from prevented body weight loss): does not exert significant toxic effects
- effect on body weight (MXT mammary tumor): prevented body weight loss

Molecule: O=P1(N(CCCl)CCCl)NCCCO1 (centres unmarked) [CP, cyclophosphamide]
- effect on blood profile (WBC, PTL) [3]: decreases both WBC and PTL numbers
- PTL [3, 5]: 404 ± 55 ×10^3/μl
- RBC [3, 5]: 8.1 ± 0.9 ×10^6/μl
- WBC [3, 5]: 3.2 ± 0.7 ×10^6/μl
- effect on tumor weight (MXT mammary tumor; MXT tumor model): effectively decreased tumor weight
- effect on body weight (MXT mammary tumor): lost significant amounts of weight
- Total weight (MXT mammary tumor; [6]): 22.4 grams
- Tumor weight (MXT mammary tumor; [6]): 0.2 grams
- Body weight (MXT mammary tumor; [6]): 22.2 grams
- Total weight (MXT mammary tumor; [7]): 21.8 grams
- Tumor weight (MXT mammary tumor; [7]): 0.2 grams
- Body weight (MXT mammary tumor; [7]): 21.6 grams
- Total weight (MXT mammary tumor; [8]): 20.2 grams
- Tumor weight (MXT mammary tumor; [8]): 0.1 grams
- Body weight (MXT mammary tumor; [8]): 20.1 grams
- Total weight (MXT mammary tumor; [9]): 19.9 grams
- Tumor weight (MXT mammary tumor; [9]): 0.2 grams
- Body weight (MXT mammary tumor; [9]): 19.7 grams
- Total weight (MXT mammary tumor; [10]): 18.8 grams
- Tumor weight (MXT mammary tumor; [10]): 0.1 grams
- Body weight (MXT mammary tumor; [10]): 18.7 grams
- Total weight (MXT mammary tumor; [11]): 18.1 grams
- Tumor weight (MXT mammary tumor; [11]): 0.1 grams
- Body weight (MXT mammary tumor; [11]): 18.0 grams

B1: granulocyte-colony stimulating factor (protein, UniProt P09919 31-207, looked up)
Granulocyte …: TPLGPASSLPQSFLLKCLEQVRKIQGDGAALQEKLVSECATYKLCHPEELVLLGHSLGIPWAPLSSCPSQALQLAGCLSQLHSGLFLYQGLLQALEGISPELGPTLDTLQLDVADFATTIWQQMEELGMAPALQPTQGAMPAFASAFQRRAGGVLVASHLQSFLEVSYRVLRHLAQP
notes: cytokine that can reduce the duration and severity of cyclophosphamide-induced neutropenia
- time to recover the platelet count to about 100,000 per 1 μl (human cancer patients): about 14 days
- time to recover the white blood cell count to 2,500 per 1 μl (mm^3) (human cancer patients): about 10 days
